Test results from patent US11160796B2, “Anti-androgens for the treatment of non-metastatic castration-resistant prostate cancer” (priority 2017, dated 2021).
Entries after “also recorded” stand apart in the source; their conditions may differ.

Legend:
[1] = tested on: non-metastatic castration-resistant prostate cancer (NM-CRPC); assay: Phase III study (SPARTAN, Study 1): efficacy; assay type: in vivo, human; settings: for Metastasis Free Survival (MFS), median: 240 mg once daily + ADT, ITT, BICR
From the text: The study consisted of a Screening Phase of up to 35 days before randomization to establish eligibility and document baseline measurements, a double-blind Treatment Phase (28-day treatment cycles; continuous dosing), and a Long-term Follow-up Phase to monitor PFS, survival status, subsequent prostate cancer therapy, PRO, and MRU. […] The randomization was stratified as follows: • PSADT: <6 months vs. >6 months; • Bone-sparing agent use: Yes vs. No; and • Loco-regional disease: N0 vs. N1 (ie, nodal disease).
All patients who were not surgically castrated received ADT continuously throughout the study. […] Systemic corticosteroids were not allowed at study entry. […] Patients randomized to either arm were to continue treatment until disease progression defined by blinded central imaging review (BICR), initiation of new treatment, unacceptable toxicity or withdrawal.
With the softgel capsules only, subjects could switch to a twice daily dosing regimen (4 tables each period) if gastrointestinal issues arose with the once daily schedule. […] For the purposes of this study, a treatment cycle consisted of 4 weeks (28 days).
The primary efficacy endpoint was metastasis-free survival (MFS), defined as the time from randomization to the time of first evidence of BICR-confirmed bone or soft tissue distant metastasis or death due to any cause, whichever occurred first. Metastasis-free survival data for subjects without metastasis or death were censored on the date of the last tumor assessment (or, if no tumor assessment was performed after the baseline visit, at the date of randomization). Censoring rules based on FDA and CHMP guidance were applied for analyses of MFS (referred to in the text as US censoring or ex-US censoring).
Patients were stratified by Prostate Specific Antigen (PSA) Doubling Time (PSADT), the use of bone-sparing agents, and locoregional disease. Patients were required to have a PSADT≤10 months and confirmation of non-metastatic disease by blinded independent central review (BICR).
The major efficacy outcome measure of the study was metastasis-free survival (MFS), defined as the time from randomization to the time of first evidence of BICR-confirmed distant metastasis, defined as new bone or soft tissue lesions or enlarged lymph nodes above the iliac bifurcation, or death due to any cause, whichever occurred first. Additional efficacy endpoints were time to metastasis (TTM), progression-free survival (PFS) which also includes locoregional progression, time to symptomatic progression, and overall survival (OS).

[2] = Dedicated QT study in patients with CRPC; assay type: in vivo, human; settings: 240 mg once daily
From the text: There was no difference greater than 20 ms in the mean QT interval change from baseline, based on the Fridericia correction method, across all timepoints at steady-state.
The maximum mean QTcF change from baseline was 12.4 ms (2-sided 90% upper CI: 16.0 ms).

CYP3A4 = biological target: T1, CYP3A4 (Homo sapiens, UniProt P08684); assay: Contribution of CYP3A4 in the metabolism of apalutamide; assay type: in vivo; settings: estimated
T1 construct: from tissue; host or cells: human subjects, in vivo (clinical pharmacology)
T1 sequence (P08684 whole entry): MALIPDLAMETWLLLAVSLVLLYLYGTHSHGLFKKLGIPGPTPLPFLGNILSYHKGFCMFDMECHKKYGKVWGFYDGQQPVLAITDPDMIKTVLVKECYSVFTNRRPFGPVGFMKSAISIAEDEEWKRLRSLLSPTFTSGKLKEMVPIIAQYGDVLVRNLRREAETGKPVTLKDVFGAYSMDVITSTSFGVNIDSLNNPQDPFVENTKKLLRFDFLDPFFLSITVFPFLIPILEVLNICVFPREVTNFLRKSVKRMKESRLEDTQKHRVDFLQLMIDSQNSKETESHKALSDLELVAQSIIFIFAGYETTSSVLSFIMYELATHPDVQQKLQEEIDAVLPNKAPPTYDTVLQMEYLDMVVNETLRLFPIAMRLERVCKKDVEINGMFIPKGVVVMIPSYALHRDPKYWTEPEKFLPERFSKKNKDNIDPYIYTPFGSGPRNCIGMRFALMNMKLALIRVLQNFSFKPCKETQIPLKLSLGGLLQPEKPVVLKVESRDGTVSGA

[3] = tested on: organic cation transporter 2 (OCT2), organic anion transporter 3 (OAT3) and multidrug and toxin extrusions (MATEs); assay: In vitro transporter inhibition: OCT2, OAT3, MATEs; assay type: in vitro ADME

CNC(=O)c1ccc(N2C(=S)N(c3cnc(C#N)c(C(F)(F)F)c3)C(=O)C23CCC3)cc1F [apalutamide, 4-[7-(6-cyano-5-trifluoromethylpyridin-3-yl)-8-oxo-6-thioxo-5,7-diazaspiro[3.4]oct-5-yl]-2-fluoro-N-methylbenzamide]
Metastasis Free Survival (MFS), median [1]: 41 months
Metastasis Free Survival (MFS), median ([1]; listed as Apalutamide): 40.5 months
decrease in the risk of symptomatic progression ([1]; compared with placebo): 55%
Progression-free Survival (PFS), median ([1]; in vivo): 40.5 months
Time to Metastasis (TTM), median ([1]; in vivo): 40.5 months
MFS HR, subgroup PSA doubling time of >6 months ([1]; non-stratified analysis): 0.30
MFS HR, subgroup PSA doubling time of months ([1]; non-stratified analysis): 0.29
MFS HR, total study population ([1]; non-stratified analysis): 0.30
decrease in the risk of distant metastasis or death ([1]; vs placebo): 72%
maximum mean QTcF change from baseline ([2]; 45 patients with CRPC): 12.4 ms
difference in mean QT interval change from baseline (Fridericia correction) ([2]; all timepoints at steady-state): ≤ 20 ms
contribution of CYP3A4 in the metabolism (CYP3A4; at steady-state): 37%
contribution of CYP3A4 in the metabolism (CYP3A4; following single dose): 13%
inhibition of OCT2, OAT3 and MATEs [3]: cannot be excluded; also recorded: inhibit
